Assay results as given in the supplement of paper PMC10331698.
± gives the standard deviation of the averaged measurements.

Columns and labels:
Test in all cases: level (log10 ratio to DMSO vehicle control); higher = higher biomarker level / cell amount than vehicle control
Details in all cases: in DMSO
[1] = compound: C=C(C)C(=O)OCC(F)(F)C(F)(F)C(F)(F)C(F)(F)C(F)(F)C(F)(F)C(F)(F)F
Description: (§1)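 BioMAP Diversity Plus panel of 12 human primary cell co-culture systems (3C, 4H, LPS, SAg, BT, BF4T, BE3C, CASM3C, HDF3CGF, KF3CT, MyoF, Mphg). Compounds were added 1 h before stimulation and left for 24 h (MyoF 48 h; BT 72 h for soluble read-outs or 6 d for IgG). Biomarkers were read by ELISA, cytotoxicity by SRB, PBMC viability and proliferation by Alamar Blue. Each well value was divided by the mean of 8 DMSO control wells on the same plate and log10 transformed; duplicate blinded samples were tested at 4 concentrations.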

1-(Perfluorohexyl)octane = compound: CCCCCCCCC(F)(F)C(F)(F)C(F)(F)C(F)(F)C(F)(F)C(F)(F)F [1-(Perfluorohexyl)octane]
Description: as §1

[2] = compound: CNS(=O)(=O)C(F)(F)C(F)(F)C(F)(F)C(F)(F)C(F)(F)C(F)(F)C(F)(F)C(F)(F)F [N-Methylperfluorooctanesulfonamide]
Description: as §1

Azathioprine = compound: Cn1cnc([N+](=O)[O-])c1Sc1ncnc2[nH]cnc12 [Azathioprine]
Description: as §1

[3] = compound: O=C(O)C(F)(F)OC(F)(F)C(F)(F)OC(F)(F)C(F)(F)C(F)(F)C(F)(F)F [Perfluoro-3,6-dioxadecanoic acid]
Description: as §1

[4] = compound: O=P(O)(O)CCC(F)(F)C(F)(F)C(F)(F)C(F)(F)C(F)(F)C(F)(F)C(F)(F)C(F)(F)F [((Perfluorooctyl)ethyl)phosphonic acid]
Description: as §1

[5] = compound: O=S(=O)(O)C(F)(F)C(F)(F)C(F)(F)C(F)(F)C(F)(F)C(F)(F)C(F)(F)C(F)(F)F [Potassium perfluorooctanesulfonate]
Description: as §1

Row | Test System | level (log10) ([1]; 6700 nM) | level (log10) ([1]; 20000 nM) | level (log10) (1-(Perfluorohexyl)octane; 6700 nM) | level (log10) (1-(Perfluorohexyl)octane; 20000 nM) | level (log10) ([2]; 6700 nM) | level (log10) ([2]; 20000 nM) | level (log10) ([2]; 60000 nM) | level (log10) (Azathioprine; 1400 nM) | level (log10) (Azathioprine; 4200 nM) | level (log10) (Azathioprine; 13000 nM) | level (log10) (Azathioprine; 38000 nM) | level (log10) ([3]; 6700 nM) | level (log10) ([3]; 20000 nM) | level (log10) ([3]; 60000 nM) | level (log10) ([4]; 6700 nM) | level (log10) ([4]; 20000 nM) | level (log10) ([4]; 60000 nM) | level (log10) ([5]; 6700 nM) | level (log10) ([5]; 20000 nM) | level (log10) ([5]; 60000 nM)
1 | MyoF:CD106/VCAM-1 | 0.0035 ± 0.015 | 0.019 ± 0.0099 | -0.0085 ± 0.005 | -0.027 ± 0.033 | 0.0065 ± 0.0078 | -0.0035 ± 0.016 | -0.0155 ± 0.012 | -0.01 ± 0.0099 | 0.008 | -0.0165 ± 0.005 | -0.022 ± 0.014 | -0.0055 ± 0.00071 | -0.0285 ± 0.026 | -0.045 ± 0.021 | -0.013 ± 0.027 | -0.0105 ± 0.015 | -0.079 ± 0.03 | 0.002 ± 0.027 | 0.0045 ± 0.029 | 0.0015 ± 0.019
2 | MyoF:CXCL8/IL-8 | -0.0215 ± 0.013 | 0.013 ± 0.014 | 0.0015 ± 0.029 | 0.028 ± 0.011 | -0.0645 ± 0.056 | -0.0895 ± 0.049 | -0.163 ± 0.037 | 0.009 ± 0.014 | 0.023 ± 0.017 | 0.027 ± 0.02 | 0.0395 ± 0.015 | 0.011 ± 0.011 | 0.0335 ± 0.013 | 0.0145 ± 0.0021 | 0.0105 ± 0.026 | 0.025 ± 0.011 | 0.038 ± 0.0028 | -0.006 ± 0.023 | -0.0455 ± 0.023 | -0.0385 ± 0.0035
3 | MyoF:Collagen I | 0.01 | -0.007 ± 0.0071 | 0.0045 ± 0.016 | -0.0205 ± 0.0035 | -0.019 ± 0.0071 | -0.0015 ± 0.023 | 0.0265 ± 0.026 | -0.0085 ± 0.015 | -0.0095 ± 0.013 | -0.024 | 0.011 ± 0.0028 | -0.026 ± 0.025 | -0.0525 ± 0.0021 | -0.19 ± 0.011 | -0.021 ± 0.0014 | -0.014 ± 0.0057 | -0.009 ± 0.035 | -0.0145 ± 0.023 | -0.0095 ± 0.013 | 0.0075 ± 0.021
4 | MyoF:Collagen III | -0.014 ± 0.0014 | -0.014 ± 0.0042 | 0.019 ± 0.03 | -0.016 ± 0.0014 | -0.0185 ± 0.016 | -0.007 ± 0.018 | -0.0175 ± 0.005 | -0.019 ± 0.021 | -0.0135 ± 0.016 | -0.0275 ± 0.0064 | -0.0115 ± 0.0092 | -0.024 ± 0.0057 | -0.0445 ± 0.0035 | -0.317 ± 0.014 | -0.013 ± 0.014 | -0.013 ± 0.017 | -0.073 ± 0.05 | -0.0275 ± 0.018 | -0.028 ± 0.031 | -0.0365 ± 0.025
5 | MyoF:Collagen IV | -0.0155 ± 0.0064 | 0.0195 ± 0.016 | 0.0135 ± 0.0064 | 0.0505 ± 0.069 | 0.228 ± 0.022 | 0.247 ± 0.024 | 0.273 ± 0.028 | 0.008 ± 0.0042 | 0.0065 ± 0.0092 | -0.013 ± 0.013 | 0.02 ± 0.016 | 0.0055 ± 0.013 | 0.0345 ± 0.019 | 0.235 ± 0.011 | -0.0005 ± 0.013 | 0.012 ± 0.025 | -0.01 ± 0.057 | 0.024 ± 0.017 | 0.0125 ± 0.022 | 0.0175 ± 0.05
6 | MyoF:Decorin | -0.011 ± 0.04 | 0.0175 ± 0.081 | 0.005 ± 0.011 | 0.0265 ± 0.032 | 0.0105 ± 0.012 | 0.005 ± 0.0085 | -0.016 ± 0.0085 | -0.007 ± 0.024 | -0.009 ± 0.023 | -0.0165 ± 0.015 | -0.013 ± 0.018 | 0.0005 ± 0.0021 | 0.023 ± 0.014 | -0.021 ± 0.027 | 0.0185 ± 0.00071 | 0.028 ± 0.0099 | 0.0305 ± 0.046 | 0.0305 ± 0.019 | 0.0305 ± 0.013 | 0.0565 ± 0.013
7 | MyoF:MMP-1 | -0.0245 ± 0.0092 | 0.0025 ± 0.086 | -0.002 ± 0.017 | -0.01 ± 0.0085 | -0.036 ± 0.013 | -0.0325 ± 0.018 | 0.008 ± 0.02 | 0.0065 ± 0.047 | 0.0165 ± 0.019 | -0.0215 ± 0.021 | 0.0315 ± 0.0021 | -0.003 ± 0.0085 | -0.03 ± 0.024 | 0.0505 ± 0.0064 | -0.036 ± 0.0085 | 0.007 ± 0.0085 | 0.0865 ± 0.04 | -0.04 ± 0.021 | -0.047 ± 0.031 | 0.0305 ± 0.044
8 | MyoF:PAI-I | 0.0005 ± 0.011 | 0.005 ± 0.0042 | -0.008 ± 0.0014 | -0.007 ± 0.0042 | 0.0005 ± 0.022 | -0.0145 ± 0.012 | 0.0255 ± 0.0092 | -0.004 ± 0.0085 | -0.0025 ± 0.0064 | -0.0015 ± 0.005 | 0 ± 0.0085 | 0.001 ± 0.0014 | -0.0005 ± 0.0092 | -0.015 ± 0.0057 | -0.0215 ± 0.0092 | -0.0075 ± 0.0064 | -0.0285 ± 0.035 | 0.003 ± 0.025 | -0.006 ± 0.0014 | -0.0065 ± 0.0064
9 | MyoF:SRB | -0.0005 ± 0.0021 | -0.0065 ± 0.0064 | 0.011 ± 0.016 | 0.006 ± 0.0042 | -0.005 ± 0.0099 | -0.0085 ± 0.012 | -0.0065 ± 0.022 | -0.0055 ± 0.0092 | 0.0015 ± 0.0021 | 0.0005 ± 0.0035 | -0.015 ± 0.0057 | 0 | -0.002 | -0.0515 ± 0.0092 | 0.002 ± 0.0042 | 0.0025 ± 0.0064 | 0.004 | -0.001 ± 0.011 | -0.0085 ± 0.0035 | -0.0145 ± 0.016
10 | MyoF:TIMP-1 | 0.0225 ± 0.029 | 0.035 ± 0.017 | -0.0265 ± 0.015 | -0.0465 ± 0.023 | -0.0435 ± 0.00071 | -0.049 ± 0.034 | -0.0415 ± 0.005 | -0.0225 ± 0.04 | -0.056 ± 0.057 | 0.013 ± 0.068 | 0.016 ± 0.071 | 0.044 ± 0.03 | 0.174 ± 0.031 | 0.164 ± 0.0014 | 0.0415 ± 0.0078 | 0.0765 ± 0.0078 | 0.0715 ± 0.026 | 0.069 ± 0.02 | 0.0605 ± 0.03 | 0.111 ± 0.0021
11 | MyoF:alpha-SM Actin | 0.0085 ± 0.022 | -0.0005 ± 0.0092 | -0.0125 ± 0.032 | -0.0095 ± 0.0078 | -0.021 ± 0.068 | -0.008 ± 0.042 | 0.024 ± 0.059 | 0.037 ± 0.095 | 0.039 ± 0.071 | 0.002 ± 0.078 | -0.0365 ± 0.1 | -0.0155 ± 0.039 | -0.0235 ± 0.018 | -0.05 ± 0.014 | 0.0005 ± 0.046 | -0.001 ± 0.038 | 0.004 ± 0.031 | -0.0215 ± 0.079 | -0.027 ± 0.075 | -0.0175 ± 0.066
12 | MyoF:bFGF | 0.005 ± 0.016 | 0.015 ± 0.025 | -0.0025 ± 0.012 | 0.0045 ± 0.005 | 0 ± 0.014 | -0.0085 ± 0.033 | 0.005 ± 0.033 | 0.001 ± 0.016 | 0.003 ± 0.0071 | -0.015 ± 0.016 | 0.01 ± 0.0071 | 0.013 ± 0.02 | 0.003 ± 0.0057 | 0.02 ± 0.011 | -0.0245 ± 0.018 | -0.024 ± 0.018 | -0.0585 ± 0.037 | -0.0105 ± 0.025 | -0.0195 ± 0.023 | -0.019 ± 0.028
13 | lMphg:CCL2/MCP-1 | -0.009 ± 0.021 | 0.008 ± 0.02 | -0.0225 ± 0.022 | 0.0065 ± 0.025 | -0.034 ± 0.0099 | -0.061 ± 0.033 | -0.0465 ± 0.04 | 0.0055 ± 0.025 | -0.0005 ± 0.0092 | -0.0315 ± 0.0078 | -0.0755 ± 0.011 | -0.024 ± 0.037 | -0.0225 ± 0.023 | -0.0435 ± 0.0092 | -0.0325 ± 0.0092 | -0.059 ± 0.024 | -0.039 ± 0.04 | -0.0275 ± 0.018 | -0.013 ± 0.047 | -0.0155 ± 0.026
14 | lMphg:CCL3/MIP-1alpha | -0.032 ± 0.0028 | 0.007 ± 0.045 | -0.022 ± 0.021 | 0.0035 ± 0.021 | -0.023 ± 0.0014 | 0.0105 ± 0.029 | 0.034 ± 0.033 | -0.0005 ± 0.00071 | -0.0235 ± 0.021 | -0.0225 ± 0.03 | -0.0975 ± 0.029 | -0.022 ± 0.064 | -0.0215 ± 0.049 | -0.0545 ± 0.054 | -0.0425 ± 0.026 | -0.0475 ± 0.0021 | -0.039 ± 0.0085 | -0.0105 ± 0.0035 | -0.0255 ± 0.0092 | -0.016 ± 0.02
